Source: patent US8192962B2, “Processes for detecting toxic substances” (Daikin Industries, Ltd., priority 2001, dated 2012)

Tested on: Unknown protein yeast genes
Assay: DNA chip mRNA expression in yeast, unknown protein yeast genes (Table 1)
Type: cell-based, Saccharomyces cerevisiae S288C
Procedure, shortened: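 In this screen, yeast in logarithmic growth are challenged for two hours with a toxic substance at a non-lethal inhibitory concentration. Their mRNA, converted to Cy3- or Cy5-labeled cDNA, hybridizes at 65° C. to a chip spanning every yeast gene, and expression is expressed as a ratio to untreated cells.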

SMILES: CCCCC[C@H](O)CC(=O)CCc1ccc(O)c(OC)c1 [(13), gingerol]
- The level of expressed mRNA in the presence of chemical substance/The level of expressed mRNA in the absence of chemical substance (yeast gene YLR415C): 1.0
- The level of expressed mRNA in the presence of chemical substance/The level of expressed mRNA in the absence of chemical substance (yeast gene YLR421C, incubated two hours with substance): 1.6
- The level of expressed mRNA in the presence of chemical substance/The level of expressed mRNA in the absence of chemical substance (yeast gene YLR427W): 2.5
- The level of expressed mRNA in the presence of chemical substance/The level of expressed mRNA in the absence of chemical substance (yeast gene YLR460C): 0.7
- The level of expressed mRNA in the presence of chemical substance/The level of expressed mRNA in the absence of chemical substance (yeast gene YML013W): 1.2
- The level of expressed mRNA in the presence of chemical substance/The level of expressed mRNA in the absence of chemical substance (yeast gene YML029W): 2.0
- The level of expressed mRNA in the presence of chemical substance/The level of expressed mRNA in the absence of chemical substance (yeast gene YML041C): 1.2
- The level of expressed mRNA in the presence of chemical substance/The level of expressed mRNA in the absence of chemical substance (yeast gene YML079W): 1.6
- The level of expressed mRNA in the presence of chemical substance/The level of expressed mRNA in the absence of chemical substance (yeast gene YMR068W): 1.4
- The level of expressed mRNA in the presence of chemical substance/The level of expressed mRNA in the absence of chemical substance (yeast gene YMR071C): 1.3
- The level of expressed mRNA in the presence of chemical substance/The level of expressed mRNA in the absence of chemical substance (yeast gene YMR102C, incubated two hours with chemical substance): 4.4
- The level of expressed mRNA in the presence of chemical substance/The level of expressed mRNA in the absence of chemical substance (yeast gene YMR160W): 1.6
- The level of expressed mRNA in the presence of chemical substance/The level of expressed mRNA in the absence of chemical substance (yeast gene YMR258C, incubated two hours with substance): 1.6
- The level of expressed mRNA in the presence of chemical substance/The level of expressed mRNA in the absence of chemical substance (yeast gene YMR315W): 2.5
- The level of expressed mRNA in the presence of chemical substance/The level of expressed mRNA in the absence of chemical substance (yeast gene YNL026W): 1.7
- The level of expressed mRNA in the presence of chemical substance/The level of expressed mRNA in the absence of chemical substance (yeast gene YNL058C): 0.6
- The level of expressed mRNA in the presence of chemical substance/The level of expressed mRNA in the absence of chemical substance (yeast gene YNL063W): 1.5
- The level of expressed mRNA in the presence of chemical substance/The level of expressed mRNA in the absence of chemical substance (yeast gene YNL176C): 0.6
- The level of expressed mRNA in the presence of chemical substance/The level of expressed mRNA in the absence of chemical substance (yeast gene YNL194C): 1.5
- The level of expressed mRNA in the presence of chemical substance/The level of expressed mRNA in the absence of chemical substance (yeast gene YNL200C): 1.1
- The level of expressed mRNA in the presence of chemical substance/The level of expressed mRNA in the absence of chemical substance (yeast gene YNL253W): 1.1
- The level of expressed mRNA in the presence of chemical substance/The level of expressed mRNA in the absence of chemical substance (yeast gene YNL276C): 1.5
- The level of expressed mRNA in the presence of chemical substance/The level of expressed mRNA in the absence of chemical substance (yeast gene YNL300W, incubated two hours with chemical substance): 0.7
- The level of expressed mRNA in the presence of chemical substance/The level of expressed mRNA in the absence of chemical substance (yeast gene YNR051C): 2.1
- The level of expressed mRNA in the presence of chemical substance/The level of expressed mRNA in the absence of chemical substance (yeast gene YOL026C): 1.2
- The level of expressed mRNA in the presence of chemical substance/The level of expressed mRNA in the absence of chemical substance (yeast gene YOL031C): 2.4
- The level of expressed mRNA in the presence of chemical substance/The level of expressed mRNA in the absence of chemical substance (yeast gene YOL084W, incubated two hours with substance): 6.4
- The level of expressed mRNA in the presence of chemical substance/The level of expressed mRNA in the absence of chemical substance (yeast gene YOL101C): 0.2
- The level of expressed mRNA in the presence of chemical substance/The level of expressed mRNA in the absence of chemical substance (yeast gene YOR022C): 1.7
- The level of expressed mRNA in the presence of chemical substance/The level of expressed mRNA in the absence of chemical substance (yeast gene YOR087W): 1.2
- The level of expressed mRNA in the presence of chemical substance/The level of expressed mRNA in the absence of chemical substance (yeast gene YOR138C): 1.8
- The level of expressed mRNA in the presence of chemical substance/The level of expressed mRNA in the absence of chemical substance (yeast gene YOR253W): 0.5
- The level of expressed mRNA in the presence of chemical substance/The level of expressed mRNA in the absence of chemical substance (yeast gene YOR267C): 1.4
- The level of expressed mRNA in the presence of chemical substance/The level of expressed mRNA in the absence of chemical substance (yeast gene YOR338W): 1.4
- The level of expressed mRNA in the presence of chemical substance/The level of expressed mRNA in the absence of chemical substance (yeast gene YOR391C): 2.3
- The level of expressed mRNA in the presence of chemical substance/The level of expressed mRNA in the absence of chemical substance (yeast gene YPL005W): 1.2
- The level of expressed mRNA in the presence of chemical substance/The level of expressed mRNA in the absence of chemical substance (yeast gene YPL087W, incubated two hours with chemical substance): 4.4
- The level of expressed mRNA in the presence of chemical substance/The level of expressed mRNA in the absence of chemical substance (yeast gene YPL150W): 2.1
- The level of expressed mRNA in the presence of chemical substance/The level of expressed mRNA in the absence of chemical substance (yeast gene YPL152W): 1.4
- The level of expressed mRNA in the presence of chemical substance/The level of expressed mRNA in the absence of chemical substance (yeast gene YPL168W): 1.0
- The level of expressed mRNA in the presence of chemical substance/The level of expressed mRNA in the absence of chemical substance (yeast gene YPL180W): 1.5
- The level of expressed mRNA in the presence of chemical substance/The level of expressed mRNA in the absence of chemical substance (yeast gene YPL188W): 0.9
- The level of expressed mRNA in the presence of chemical substance/The level of expressed mRNA in the absence of chemical substance (yeast gene YPL221W): 1.0
- The level of expressed mRNA in the presence of chemical substance/The level of expressed mRNA in the absence of chemical substance (yeast gene YPL225W): 0.8
- The level of expressed mRNA in the presence of chemical substance/The level of expressed mRNA in the absence of chemical substance (yeast gene YPL280W): 2.4
- The level of expressed mRNA in the presence of chemical substance/The level of expressed mRNA in the absence of chemical substance (yeast gene YPR049C): 1.6
- The level of expressed mRNA in the presence of chemical substance/The level of expressed mRNA in the absence of chemical substance (yeast gene YPR146C): 1.3
- The level of expressed mRNA in the presence of chemical substance/The level of expressed mRNA in the absence of chemical substance (yeast gene YPR148C): 1.2
- The level of expressed mRNA in the presence of chemical substance/The level of expressed mRNA in the absence of chemical substance (yeast gene YPR158W, incubated two hours with substance): 1.6
- The level of expressed mRNA in the presence of chemical substance/The level of expressed mRNA in the absence of chemical substance (yeast gene YPR172W): 1.3
